Patent US5434132A, “Neuropeptide antagonists” (Imperial Cancer Research Technology, Ltd., priority 1988, dated 1995)
Like-named read-outs stand apart in the source and are kept apart here. Non-standard residues stand in square brackets, D forms with d. Residues, ends and D or L forms follow the SMILES beside them. No end group written: not given here. *: point of attachment. X1 = CC(C)C[C@@H](CN[C@@H](CC(C)C)C(N)=O)N*; pGlu = O=C1CC[C@@H](C(=O)O)N1

Assays:
[1] = test system: Swiss 3T3 cells; settings: references 4,12,13; cited from earlier work
[2] = test system: Swiss 3T3 cells
[3] = test system: small cell lung cancer (SCLC) cell lines; assay: Growth in vitro of small cell lung cancer (SCLC) cell lines
[4] = test system: bombesin/GRP, bradykinin and vasopressin receptors; assay: Mitogenic responses elicited through bombesin/GRP, bradykinin and vasopressin receptors; format: cell-based, murine
[5] = test system: Swiss 3T3 cells; settings: earlier patent application and references 10, 11; cited from earlier work
[6] = test system: Swiss 3T3 cells; assay: Vasopressin-induced DNA synthesis in Swiss 3T3 cells; format: cell-based, murine
[7] = test system: Swiss 3T3 cells; remark: listed apart in the source
[8] = test system: Swiss 3T3 cells; assay: Mitogenesis stimulated by VIP in Swiss 3T3 cells; format: cell-based, murine
[9] = biological target: T1, vasopressin receptor (Mus musculus, UniProt Q62463); settings: references 4,12,13; cited from earlier work
T1 construct: endogenous in cells; host or cells: Swiss 3T3 cells

[10] = test system: Swiss 3T3 cells; format: cell-based, murine
[11] = biological target: T2, bombesin/GRP receptor (Mus musculus, UniProt P21729); settings: previously published; cited from earlier work
T2 construct: Membrane protein (150 μg) prepared from Swiss 3T3 cells as described above; endogenous in cells; host or cells: Swiss 3T3 cells; membrane-enriched fraction prepared with 5 mM Mg2+

[12] = biological target: T3, Mr 75,000-85,000 protein (Mus musculus, UniProt P21729); assay: Chemical cross-linking (EGS) of 125I-GRP to the Mr 75,000-85,000 protein in Swiss 3T3 membranes; format: binding, murine; settings: 10 min, read-out: 125I-GRP affinity labelling of the Mr 75,000-85,000 protein
T3 construct: Membrane protein (150 μg) prepared from Swiss 3T3 cells as described above; endogenous in cells; host or cells: Swiss 3T3 cells; membrane-enriched fraction prepared with 5 mM Mg2+
Procedure: BSA was omitted from all solutions used in the cross-linking studies. At the end of the incubation the membranes were centrifuged at 1000 rpm for 1 minute in a MSE microfuge at room n temperature. The pellets were then resuspended in cross-linking medium containing 4 mM of the cross-linking reagent (EGS) and incubated at 37° C. or 15° C. for 5 minutes or 15 minutes respectively. The reaction was terminated by centrifugation for 1 minute followed by one wash with cross-linking medium and centrifugation. Samples were solubilised in 0.20 ml of 2× sample buffer, (0.2 M Tris-HCl pH 6.8, 10% (w/v) glycerol, 6% sodium dodecyl sulphate (SDS) (w/v), 4% β-mercaptoethanol (v/v), and 2 mM EDTA), immediately heated to 100° C. for 10 minutes and analysed by one dimensional electrophoresis.
SDS-Polyacrylaaide Gel glectrophoresis: Slab gel electrophoresis was performed using 8% acrylamide in the separating gel and 4% in the stacking gel and 0.1% SDS (37). After electrophoresis gels were stained, desrained and dried down onto paper for autoradiography with Fuji x-ray film. Dried gels were exposed for 2-4 days at -70° C. Autoradiograms were scanned using an LKB ultrascan XL densitometer; and the incorporation of radioactivity into the Mr 75,000-85,000 band was quantified using the Ultroscan XL internal digital integrator.
Following incubation at 37° C. for 10 minutes the membranes were pelleted by centrifugation and chemical cross-linking carried out as described in "Experimental Procedures" using 4 mM EGS. The samples were analyzed by SDS-PAGE and scanning densitometry of the autoradiograms as described in "Experimental Procedures".

[13] = biological target: T2, bombesin/GRP receptor; assay: 125I-GRP binding to membrane preparations of Swiss 3T3 cells; design: species or system murine; settings: addition at 1μM; 0.5 nM 125I-GRP, 37° C., 10 minutes; None 305 ± 9; mean±SEM, n=3
Procedure: Membrane preparation: Cultures in roller bottles were washed twice with 150 ml phosphate buffered saline (PBS) (0.14M NaCl, 5 mM KCl, 0.01M Na2 HPO4, 1.8 mM KH2 PO4; pH 7.2) at room temperature. The cells were then harvested at 4° C. by scraping into ice cold PBS containing 5 mM MgCl2, 1 mM [ethylenebis(oxyethylenenitrilo)]tetraacetic acid (EGTA), 1 mg/ml bacitracin, 10 ug/ml aprotonin, 1 mg/ml soybean trypsin inhibitor and 50 μM phenylmethylsulphonyl fluoride. All subsequent steps were carried out at 4° C. The cells were pelleted by centrifugation at 750 x g for 10 minutes and resuspended 5×10^6 /ml in solution A containing 50 mM 4-(2-Hydroxyethyl)-1-piperazineethanesulfonic acid (Hepes), 5 mM MgCl2, 1 mM EGTA, 1 mg/ml bacitracin, 10 μg/ml aprotonin, 1 mg/ml soybean trypsin inhibitor and 50 μM phenylmethylsulfonyl fluoride, adjusted to pH 7.4 with NaOH at 4° C. Cells were then disrupted using a Dounce homogeniser (A pestle) 75 strokes. The homogenate was centrifuged at 500 x g for 10 minutes to remove nuclear material and intact cells and the supernatant was centrifuged again at 30000 x g for 30 minutes. The resulting pellet, representing a membrane-enriched preparation was resuspended at a protein concentration of 5 to 10 mg/ml in solution A and stored in liquid nitrogen. For experiments, membranes were thawed and diluted to a concentration of 1 mg/ml with solution A.
Receptor binding assay: Binding assays were carried out in a total volume of 100 ul in binding medium containing 50 mM Hepes, 5 mM MgCl2, 1 mg/ml bacitracin and 1% bovine serum albumin (BSA), adjusted to pH 7.4 with NaOH, unless otherwise indicated. […] Non-specific binding was subtracted from the total binding to obtain specific binding. The membranes were incubated for either 10 minutes at 37° C. or 30 minutes: at 15° C. as indicated.
The binding reactions were terminated at the specified times by rapid filtration on GF/B glass fibre filters (Whatmann, 1.0 μm pore size). Each filter was washed five times with 5 ml of PBS containing 1% BSA at 4° C. (15 s total time) using a Millipore filtration apparatus. Before the addition of membranes the filters were soaked for 24 hours in 5% polyethylenimine at 4° C. and washed with 5 ml of PBS containing 1% BSA immediately prior to use. […] Radioactivity was determined with a Beckmann γ-counter.
When 1n[(Beq - Bt)/(BoLo - Beq Bt)]is plotted as a function of time k1 can be determined from the slope by the following relation k1 =slope x [Beg/(Beg^2 - BoLo)](36) where Bo and Lo are the initial concentrations of receptor and ligand respectively. Bt is the concentration of receptor-ligand complex at time t and Beg is its concentration at equilibrium. Equation (1) takes into account the decrease in free ligand concentration that occurs during the binding reaction.
The first order rate constant of dissociation was determined from the slope of the line obtained by plotting ln(Bt/Beg) as a function of time.
The reactions were terminated and specific binding determined as described in "Experimental Procedures".

[14] = test system: Swiss 3T3 cells; assay: Stimulation of DNA synthesis in Swiss 3T3 cells; format: cell-based, murine; settings: in the presence of insulin
[15] = biological target: T1, vasopressin receptor; assay: [3H]vasopressin binding to Swiss 3T3 cells; design: species or system murine
[16] = biological target: T2, bombesin/GRP receptor; assay: [125I]GRP binding to intact Swiss 3T3 cells; design: species or system murine; settings: 37° C.
[17] = test system: Swiss 3T3 cells; assay: Cytosolic Ca2+ concentration in Fura-2 loaded Swiss 3T3 cells; format: cell-based, murine; settings: Fura-2 loaded cells
[18] = test system: Swiss 3T3 cells; assay: Ca2+ mobilisation elicited by GRP in Swiss 3T3 cells; format: cell-based, murine; settings: 5 secs
[19] = biological target: T4, Mr 75,000-85,000 glycoprotein component of the receptor (Mus musculus, UniProt P21729); assay: Cross-linking of [125I]GRP to the Mr 75,000-85,000 glycoprotein in intact Swiss 3T3 cells; format: binding, murine; settings: 1 nM [125I]GRP, 24° C.
T4 construct: endogenous in cells; host or cells: Swiss 3T3 cells (intact, confluent and quiescent)
Procedure: Methods: Swiss 3T3 cells were maintained in culture and assays of DNA synthesis performed as previously described 2,4,6 In all the figures, values shown represent the mean of at least 2 determinations. […] After 10 mins they were washed twice with binding medium, then incubated at 24° C. in 1 ml containing […] ethylene glycol bis(succinimidylsuccinate) at pH 7.4. After 10 mins they were washed twice with cold binding medium and solubilised in 100 μl sample buffer^8,then immediately boiled for 5 mins, and electrophoresed on a 10% polyacrylamide gel.

[20] = test system: guinea pig pancreatic acini; settings: read-out: 50% inhibition (IC50) of bombesin-stimulated amylase release; cited from earlier work
[21] = test system: Swiss 3T3 cells; assay: EGF receptor transmodulation elicited by GRP in Swiss 3T3 cells; format: cell-based, murine; settings: 1 min

T2 sequence (P21729 whole entry): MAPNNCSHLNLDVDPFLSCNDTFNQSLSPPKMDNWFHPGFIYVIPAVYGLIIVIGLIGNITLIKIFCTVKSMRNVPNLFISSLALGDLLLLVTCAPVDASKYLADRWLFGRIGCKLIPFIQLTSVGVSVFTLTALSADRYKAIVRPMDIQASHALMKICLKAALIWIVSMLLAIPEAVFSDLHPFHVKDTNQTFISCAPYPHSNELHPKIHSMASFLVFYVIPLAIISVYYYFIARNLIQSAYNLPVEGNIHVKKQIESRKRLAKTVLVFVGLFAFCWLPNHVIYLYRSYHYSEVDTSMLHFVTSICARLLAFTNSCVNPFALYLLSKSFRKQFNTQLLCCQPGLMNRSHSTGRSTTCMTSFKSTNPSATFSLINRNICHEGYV
T1 sequence (Q62463 whole entry): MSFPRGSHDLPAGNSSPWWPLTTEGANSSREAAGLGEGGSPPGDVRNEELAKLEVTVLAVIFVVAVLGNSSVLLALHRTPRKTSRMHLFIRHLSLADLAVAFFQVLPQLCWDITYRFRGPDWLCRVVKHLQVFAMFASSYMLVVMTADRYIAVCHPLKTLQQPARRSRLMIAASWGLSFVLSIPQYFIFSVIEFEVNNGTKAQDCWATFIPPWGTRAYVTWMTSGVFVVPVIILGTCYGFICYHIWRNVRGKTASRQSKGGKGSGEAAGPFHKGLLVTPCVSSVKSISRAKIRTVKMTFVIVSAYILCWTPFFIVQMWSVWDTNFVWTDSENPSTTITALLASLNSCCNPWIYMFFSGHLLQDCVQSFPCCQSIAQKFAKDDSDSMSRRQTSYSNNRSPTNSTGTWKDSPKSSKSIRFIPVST
T3 sequence (P21729 whole entry): as the sequence (P21729 whole entry) above
T4 sequence (P21729 whole entry): as above

## CC(C)C[C@H](NC(=O)[C@H](CC(C)C)NC(=O)[C@@H](Cc1c[nH]c2ccccc12)NC(=O)[C@H](Cc1ccccc1)NC(=O)[C@@H](Cc1c[nH]c2ccccc12)NC(=O)[C@H](CCC(N)=O)NC(=O)[C@@H](Cc1ccccc1)NC(=O)[C@@H]1CCCN1C(=O)[C@H](CCCCN)NC(=O)[C@@H]1CCCN1C(=O)[C@H](N)CCCNC(=N)N)C(N)=O [antagonist D, D-Arg-Pro-Lys-Pro-D-Phe-Gln-D-Trp-Phe-D-Trp-Leu-Leu-NH2] (H-[dR]PKP[dF]Q[dW]F[dW]LL-NH2)
[1]
  inhibition of vasopressin-stimulated DNA synthesis: inhibit
[2]; 20 μM antagonist D or 1 μm L.PSI.LB, GRP 3.6 nM, bombesin 1.2 nM, litorin 1.8 nM
  effect against DNA synthesis induced by various bombesin-like peptides: effective
[3]
  potency relative to Antagonist A in inhibiting growth of SCLC: 5-10 fold
[4]
  potency relative to antagonist A against each mitogen: 5-10 fold
[5]
  potency as bombesin antagonist relative to antagonist A: 5-10 fold
[6]; 1 uM L.PSI.LB or antagonist D
  inhibition of vasopressin-induced DNA synthesis: potent inhibitor
[7]
  IC50: 8.3 µM
[8]; VIP 3.0 nM, 20 μM antagonist D or 1 μm L.PSI.LB
  inhibition of mitogenesis stimulated by VIP: Neither antagonist D nor [Leu^13 -.PSI.(CH2 NH)Leu^14 ]bombesin inhibited
[9]
  inhibition of [3H]vasopressin binding: inhibit
[10]; 20 μM antagonist D or 1 μm L.PSI.LB
  inhibition of mitogenesis stimulated by EGF, PDGF, phorbol dibutyrate, cholera toxin and 8-bromo-cAMP: Neither of them inhibited

## CSCC[C@H](NC(=O)[C@H](CC(C)C)NC(=O)CNC(=O)[C@H](Cc1ccccc1)NC(=O)[C@H](Cc1ccccc1)NC(=O)[C@H](CCC(N)=O)NC(=O)[C@H](CCC(N)=O)NC(=O)[C@@H]1CCCN1C(=O)[C@H](CCCCN)NC(=O)[C@@H]1CCCN1C(=O)[C@@H](N)CCCNC(=N)N)C(N)=O [substance P, Arg-Pro-Lys-Pro-Gln-Gln-phe-phe-Gly-Leu-Met-NH2]
[11]
  inhibition of binding of [125I]GRP to Swiss 3T3 cells: neither inhibits
[12]; addition at 1μM, 0.5 nM 125I-GRP, 37° C., 10 minutes, None 100
  remaining activity at 1 µM: 93 ± 2%
[13]
  specific binding of 125I-GRP to membranes: 305 ± 4 fmole/mg protein

## RPPGFSPFR [Bradykinin, bradykinin]
[14]
  stimulation of DNA synthesis: maximal stimulation
[15]
  inhibition of [3H]vasopressin binding: did not inhibit
[12]
  remaining activity at 1 µM: 95 ± 3%
[16]
  inhibition of specific binding of [125I]GRP to the cells: did not inhibit
[13]
  specific binding of 125I-GRP to membranes: 302 ± 9 fmole/mg protein
[17]
  change in cytosolic Ca2+ concentration: rapid and transient increase

## CC(C)C[C@@H](CN[C@@H](CC(C)C)C(N)=O)NC(=O)[C@H](Cc1c[nH]cn1)NC(=O)CNC(=O)[C@@H](NC(=O)[C@H](C)NC(=O)[C@H](Cc1c[nH]c2ccccc12)NC(=O)[C@H](CCC(N)=O)NC(=O)[C@H](CC(N)=O)NC(=O)CNC(=O)[C@H](CC(C)C)NC(=O)[C@H](CCCNC(=N)N)NC(=O)[C@H](CCC(N)=O)NC(=O)[C@@H]1CCC(=O)N1)C(C)C [[Leu^13 -.PSI.(CH2 NH)Leu^14]bombesin] ([pGlu]QRLGNQWAVGH-X1; C-terminus assumed)
[18]
  block of Ca2+ mobilisation elicited by GRP: blocked
[2]
  effect against DNA synthesis induced by various bombesin-like peptides: effective
  inhibition of GRP-induced DNA synthesis: strongly inhibited
[19]
  block of cross-linking of [125I]GRP to the Mr 75,000-85,000 glycoprotein: blocked
[16]
  inhibition of specific binding of [125I]GRP to the cells: inhibited
[20]
  IC50: 0.035 µM
[21]
  block of EGF receptor transmodulation elicited by GRP: blocked
[6]
  inhibition of vasopressin-induced DNA synthesis: no effect
[7]; 1 μM L.PSI.LB
  effect on bradykinin-stimulated DNA synthesis: no effect
[8]
  inhibition of mitogenesis stimulated by VIP: Neither antagonist D nor [Leu^13 -.PSI.(CH2 NH)Leu^14 ]bombesin inhibited
[10]
  inhibition of mitogenesis stimulated by EGF, PDGF, phorbol dibutyrate, cholera toxin and 8-bromo-cAMP: Neither of them inhibited
